≈ marks a conversion by molar mass, not a printed value.
System: Mycobacterium tuberculosis strain H37Rv
Assay: Minimal inhibitory concentration (MIC) by resazurin microtitre assay (REMA)
Type: cell-based
Settings: for MIC: Mycobacterium tuberculosis, 168 h, M. tuberculosis H37Rv, REMA, 7 days (10 generations), 96-well plate

Row | SMILES | MIC | activity against Mycobacterium tuberculosis (strain H37Rv) compared with pyridomycin (strain H37Rv, statement in words)
1 | CC(C)[C@H]1OC(=O)[C@H](C)[C@H](O)[C@H](Cc2cccnc2)NC(=O)[C@@H](NC(=O)c2ncccc2O)[C@@H](C)OC1=O [Analog 100b] | 1.56 µg/mL (≈ 2.95 µM) | in the same range of inhibitory activity as for pyridomycin
2 | CC(C)[C@@H]1OC(=O)[C@H](C)[C@H](O)[C@H](Cc2cccnc2)NC(=O)[C@@H](NC(=O)c2ncccc2O)[C@@H](C)OC1=O [Analog 100a] | 12.5 µg/mL (≈ 23.6 µM) | 

Reference: patent US20150246907A1 (ETH Zurich, priority 2012, published 2015)
